In article PMC7318034, “Safety, Pharmacokinetics, and Drug-Drug Interaction Potential of Intravenous Durlobactam, a β-Lactamase Inhibitor, in Healthy Subjects” (Antimicrobial Agents and Chemotherapy, 2020):

Assays:
renal transporter OAT1 = target: T1, renal transporter OAT1 (Homo sapiens, UniProt Q4U2R8); assay: In vitro assessment of transporter interactions; type: in vitro ADME; conditions: data not published
T1 sequence (Q4U2R8 1-563): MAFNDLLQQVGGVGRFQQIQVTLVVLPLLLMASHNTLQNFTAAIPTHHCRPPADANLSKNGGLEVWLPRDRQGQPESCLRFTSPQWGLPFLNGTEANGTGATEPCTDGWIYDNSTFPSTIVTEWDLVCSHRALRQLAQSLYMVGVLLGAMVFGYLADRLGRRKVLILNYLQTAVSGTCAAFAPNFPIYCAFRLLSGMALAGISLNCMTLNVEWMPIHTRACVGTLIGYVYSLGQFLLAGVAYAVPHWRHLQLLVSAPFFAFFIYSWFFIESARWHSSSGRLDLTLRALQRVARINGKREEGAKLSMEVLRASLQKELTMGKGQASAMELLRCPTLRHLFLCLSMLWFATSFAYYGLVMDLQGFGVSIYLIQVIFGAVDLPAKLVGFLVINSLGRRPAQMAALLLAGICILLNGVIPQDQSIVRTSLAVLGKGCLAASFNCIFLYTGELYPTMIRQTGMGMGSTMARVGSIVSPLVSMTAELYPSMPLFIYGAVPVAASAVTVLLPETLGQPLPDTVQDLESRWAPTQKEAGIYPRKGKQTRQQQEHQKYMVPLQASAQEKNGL

[1] = Urine PK (urinary excretion, renal clearance) in healthy subjects; conditions: for CL renal: human, urine, intravenous, CLr
clinical = conditions: human, in vivo
Protocol: The blank control matrix was made up of human plasma (BioreclamationIVT) diluted 1:1 with SigmaFast (reconstituted protease inhibitor cocktail tablet [product S8820; Sigma-Aldrich, St. Louis, MO] in 10 ml of water) for preparation of calibration standards and QC samples. […] A 100-μl aliquot of the supernatant was transferred to 96-well plates. Samples were diluted further with 400 μl of water, and 5 μl of sample was injected into the LC-MS/MS system for analysis. […] The LLOQ for all analytes was 5 ng/ml.
AUC was calculated using the log-linear trapezoidal rule.
Pharmacokinetic parameters were summarized at each assessment time point using the mean ± standard deviation (SD), the percent coefficient of variation (CV), median, minimum, and maximum. Single-ascending-dose study data were assessed for dose proportionality using Cmax and AUC, and accumulation ratios was determined using repeat-dose cohorts. […] Noncompartmental analysis of PK parameters was performed using Phoenix WinNonlin (v6.4) software to determine PK parameters.

[2] = Protein binding in human plasma; type: in vitro ADME
[3] = part C cohort 13, Day 5 (DUR 1 g + sulbactam 1 g)
[4] = part A cohort 6, single 4 g, n=4
[5] = part A cohort 7, single 8 g, n=5
[6] = part A cohort 8 (elderly), single 1 g, n=5
[7] = part B cohort 9, first 48 hours, dose over 48 hours 2.00 g (8 doses)
[8] = part B cohort 9, following the final dose on Day 8, 0.250 g
[9] = part B cohort 10, first 48 hours, dose over 48 hours 4.00 g (8 doses)
[10] = part B cohort 10, following the final dose on Day 8, 0.500 g
[11] = part B cohort 11, first 48 hours, dose over 48 hours 8.00 g (8 doses)
[12] = part B cohort 11, following the final dose on Day 8, 1.000 g
[13] = part B cohort 12, first 48 hours, dose over 48 hours 16.00 g (8 doses)
[14] = part B cohort 12, following the final dose on Day 8, 2.000 g
[15] = part C cohort 13, Day 1 (DUR 1 g alone)
[16] = part C cohort 14, Day 1 (DUR 1 g alone), mean
[17] = part D cohort 15, Day 1, DUR + SUL + IMI-CIL q6h, mean, n=10
[18] = part D cohort 15, Day 11, DUR + SUL + IMI-CIL q6h, mean, n=10

With `CC1=C[C@@H]2CN(C(=O)N2OS(=O)(=O)O)[C@@H]1C(N)=O` [DUR, Durlobactam] as the molecule, how does the “substrate of renal transporter OAT1” value (renal transporter OAT1) read?
The value was “affinity of the substrate for the renal transporter OAT1”.

What about the CL renal ([1]; 0.25 g, mean, part B cohort 9, following the final dose on Day 8, 0.250 g) of the same molecule?
Its CL renal is 84.1 mL/min.

What about the CL renal ([1]; 0.25 g, median, part B cohort 9, following the final dose on Day 8, 0.250 g) of the same molecule?
Its CL renal is 73.5 mL/min.

And the CL renal ([1]; 0.5 g, mean, part B cohort 10, following the final dose on Day 8, 0.500 g)?
Its CL renal is 95.6 mL/min.

What about the CL renal ([1]; 0.5 g, median, part B cohort 10, first 48 hours, dose over 48 hours 4.00 g (8 doses)) of the same molecule?
Its CL renal is 291 mL/min.

What about the CL renal ([1]; 0.5 g, median, part B cohort 10, following the final dose on Day 8, 0.500 g) of the same molecule?
The CL renal was 96.2 mL/min.

What about the CL renal ([1]; 1 g, mean, part A cohort 8 (elderly), single 1 g, n=5) of the same molecule?
Its CL renal is 55.4 mL/min.

And the CL renal ([1]; 1 g, mean, part B cohort 11, first 48 hours, dose over 48 hours 8.00 g (8 doses))?
Its CL renal is 364 mL/min.

And the CL renal ([1]; 1 g, mean, part B cohort 11, following the final dose on Day 8, 1.000 g)?
The CL renal was 93.6 mL/min.

What about the CL renal ([1]; 1 g, median, part A cohort 8 (elderly), single 1 g, n=5) of the same molecule?
The CL renal was 66 mL/min.

And the CL renal ([1]; 1 g, median, part B cohort 11, following the final dose on Day 8, 1.000 g)?
Its CL renal is 98 mL/min.

What about the CL renal ([1]; 2 g, mean, part B cohort 9, first 48 hours, dose over 48 hours 2.00 g (8 doses)) of the same molecule?
Its CL renal is 238 mL/min.

And the CL renal ([1]; 2 g, mean, part B cohort 12, following the final dose on Day 8, 2.000 g)?
The CL renal was 108 mL/min.

And the CL renal ([1]; 2 g, median, part B cohort 9, first 48 hours, dose over 48 hours 2.00 g (8 doses))?
Its CL renal is 220 mL/min.

And the CL renal ([1]; 2 g, median, part B cohort 12, following the final dose on Day 8, 2.000 g)?
Its CL renal is 109 mL/min.

And the CL renal ([1]; 4 g, mean, part A cohort 6, single 4 g, n=4)?
The CL renal was 132 mL/min.

And the CL renal ([1]; 4 g, mean, part B cohort 10, first 48 hours, dose over 48 hours 4.00 g (8 doses))?
Its CL renal is 272 mL/min.

And the CL renal ([1]; 4 g, median, part A cohort 6, single 4 g, n=4)?
Its CL renal is 134 mL/min.

And the CL renal ([1]; 8 g, mean, part A cohort 7, single 8 g, n=5)?
The CL renal was 109 mL/min.

What about the CL renal ([1]; 8 g, median, part A cohort 7, single 8 g, n=5) of the same molecule?
The CL renal was 130 mL/min.

What about the CL renal ([1]; 8 g, median, part B cohort 11, first 48 hours, dose over 48 hours 8.00 g (8 doses)) of the same molecule?
The CL renal was 392 mL/min.

What about the CL renal ([1]; 16 g, mean, part B cohort 12, first 48 hours, dose over 48 hours 16.00 g (8 doses)) of the same molecule?
The CL renal was 307 mL/min.

And the CL renal ([1]; 16 g, median, part B cohort 12, first 48 hours, dose over 48 hours 16.00 g (8 doses))?
The CL renal was 307 mL/min.

What about the CL renal [1, 3] of the same molecule?
Its CL renal is 81 mL/min.

And the “Ae, mean” value [1, 4]?
Its value is 3057.384 mg.

And the “Ae, median” value [1, 4]?
Its value is 3114.55 mg.

What about the “Fe, mean” value [1, 4] of the same molecule?
Its value is 76.4345%.

And the “Fe, median” value [1, 4]?
Its value is 77.8635%.

What about the “Ae, mean” value [1, 5] of the same molecule?
The value was 4401.576 mg.

What about the “Ae, median” value [1, 5] of the same molecule?
Its value is 4705.45 mg.

What about the “Fe, mean” value [1, 5] of the same molecule?
Its value is 55.0196%.

What about the “Fe, median” value [1, 5] of the same molecule?
The value was 58.8180%.

And the “Ae, mean” value [1, 6]?
The value was 582.604 mg.

And the “Ae, median” value [1, 6]?
The value was 573.87 mg.

And the “Fe, mean” value [1, 6]?
The value was 58.2604%.

What about the “Fe, median” value [1, 6] of the same molecule?
Its value is 57.3870%.

What about the “intact drug renally excreted” value ([1]; part A single dose) of the same molecule?
The value was “approximately 50%”.

What about the “Ae, mean” value [1, 7] of the same molecule?
The value was 953.242 mg.

And the “Ae, median” value [1, 7]?
The value was 1031.41 mg.

What about the “Fe, mean” value [1, 7] of the same molecule?
Its value is 47.662%.

And the “Fe, median” value [1, 7]?
The value was 51.57%.

And the “Ae, mean” value [1, 8]?
Its value is 141.184 mg.

And the “Ae, median” value [1, 8]?
The value was 151.20 mg.

And the “Fe, mean” value [1, 8]?
Its value is 56.473%.

And the “Fe, median” value [1, 8]?
The value was 60.48%.

And the “Ae, mean” value [1, 9]?
The value was 2157.551 mg.

What about the “Ae, median” value [1, 9] of the same molecule?
Its value is 2288.24 mg.

And the “Fe, mean” value [1, 9]?
Its value is 53.939%.

And the “Fe, median” value [1, 9]?
The value was 57.21%.

What about the “Ae, mean” value [1, 10] of the same molecule?
The value was 337.614 mg.

What about the “Ae, median” value [1, 10] of the same molecule?
The value was 329.39 mg.

And the “Fe, mean” value [1, 10]?
The value was 67.523%.

What about the “Fe, median” value [1, 10] of the same molecule?
The value was 65.88%.

What about the “Ae, mean” value [1, 11] of the same molecule?
Its value is 4535.949 mg.

And the “Ae, median” value [1, 11]?
Its value is 5204.73 mg.

What about the “Fe, mean” value [1, 11] of the same molecule?
Its value is 56.699%.

What about the “Fe, median” value [1, 11] of the same molecule?
The value was 65.06%.

And the “Ae, mean” value [1, 12]?
Its value is 657.112 mg.

And the “Ae, median” value [1, 12]?
The value was 670.87 mg.

What about the “Fe, mean” value [1, 12] of the same molecule?
Its value is 65.711%.

And the “Fe, median” value [1, 12]?
Its value is 67.09%.

And the “Ae, mean” value [1, 13]?
Its value is 8856.594 mg.

What about the “Ae, median” value [1, 13] of the same molecule?
The value was 7879.32 mg.

What about the “Fe, mean” value [1, 13] of the same molecule?
Its value is 55.354%.

And the “Fe, median” value [1, 13]?
Its value is 49.25%.

And the “Ae, mean” value [1, 14]?
The value was 1386.730 mg.

What about the “Ae, median” value [1, 14] of the same molecule?
Its value is 1278.52 mg.

And the “Fe, mean” value [1, 14]?
Its value is 69.336%.

And the “Fe, median” value [1, 14]?
The value was 63.93%.

What about the Ae [1, 15] of the same molecule?
The Ae was 409.644 (68.690) mg.

What about the Fe [1, 15] of the same molecule?
The Fe was 40.964 (6.869) %.

What about the Ae [1, 3] of the same molecule?
Its Ae is 499.627 (95.305) mg.

And the Fe [1, 3]?
The Fe was 49.963 (9.530) %.

And the Ae [1, 16]?
Its Ae is 426.643 mg.

And the Fe [1, 16]?
The Fe was 42.664%.

And the Ae [1, 17]?
The Ae was 3481.42 mg.

What about the Fe [1, 17] of the same molecule?
The Fe was 43.518%.

What about the Ae [1, 18] of the same molecule?
Its Ae is 491.58 mg.

And the Fe [1, 18]?
Its Fe is 49.158%.

And the “AUC0–24” value (clinical)?
Its value is 104.4 ± 6.6 µg·h/mL.

What about the CL (clinical) of the same molecule?
The CL was 9.6 ± 0.6 L/h.

What about the Cmax (clinical) of the same molecule?
Its Cmax is 26900 ± 3600 ng/mL.

And the Vss (clinical)?
The Vss was 17.6 ± 2.0 L.

And the AUC(0-t) (clinical; AUC0–24)?
Its AUC(0-t) is 106 ± 31.5 µg·h/mL.

What about the clearance (clinical; CL) of the same molecule?
The clearance was 165 mL/min.

And the Cmax (clinical; Cmax)?
Its Cmax is 30000 ± 9200 ng/mL.

And the Vd (clinical; Vss)?
Its Vd is 15.9 ± 2.6 L.

What about the half-life (clinical; t1/2) of the same molecule?
The half-life was 1.8 ± 0.4 h.

And the fraction unbound [2]?
Its fraction unbound is 0.1.
